Consider one compound from patent US10683334B2 (INDIANA UNIVERSITY RESEARCH AND TECHNOLOGY CORPORATION, priority 2016, dated 2020).

The nature of one data set: physchem. The procedure: 1 or 5 mg of pre-lyophilized peptide in 2 mL Eppendorf tube was treated with 200-400 uL of phosphate buffer (PBS: 50 mM sodium phosphate, 150 mM of sodium chloride, pH7.4). Samples were then vortexed and sonicated for 10 min then equilibrated at RT for 1H, and then centrifuged at 10 krpms for 10 min Concentration of the peptides in obtained supernatant was determined by measuring UV absorbance at λ=280 nm. […] Concentration in aliquots was reassessed as previously with UV absorbance. Change in peptide concentration was evaluated after 48 h and 7 days of storage at 4° C.

Data set [1] is described as follows: Thioflavin-T fluorescence assay (fibrillation/aggregation). It counts as physicochemical.
Procedure: The Thioflavin T (ThT) Assay measures changes of in fluorescence intensity of ThT upon binding to amyloid fibrils. The enhanced fluorescence can be observed by fluorescence microscopy or by fluorescent spectroscopy. The spectroscopic assay is commonly used to monitor fibrilization over time, but the assay is not strictly quantitative and differences in binding have been observed for samples after lyophilization.
Prepare a ThT stock solution by adding 8 mg ThT to 10 mL phosphate buffer (10 mM phosphate, 150 mM NaCl, pH 7.0) and filter through a 0.2 μm syringe filter. This stock solution should be stored in the dark and is stable for about one week.
Dilute the stock solution into the phosphate buffer (1 mL ThT stock to 50 mL buffer) on the day of analysis to generate the working solution.
Add an aliquot of untreated protein solution (5-10 μL) to the cuvette, stir for 1 min, and measure the intensity over 60 s. This serves as the control sample. […]
Lyophilized peptides were dissolved in appropriate buffer at concentration ˜8-9 mg/mL (1-5 in 0.1N hydrochloric acid; 7, 9 and 11 in 50 mM Sodium Phosphate, 150 mM of sodium chloride, pH7.4). Exact concentration was calculated based on UV absorbance at λ=280 nm and all samples were dissolved further down to equal concentration of 5 mg/mL. […] Fibrillation was measured according to modified Thioflavin-T fluorescence assay protocol. […]
Data set [2] has as its system insulin induced hypoglycemia in diabetic pigs. As to the kind of experiment: Pig study: reversal of insulin induced hypoglycemia. It counts as in vivo, Yucatan miniature swine. Conditions: insulin detemir 0.5 U/kg s.c. at 0 min, peptide 10 nmoles/kg at 240 min. The procedure: Male diabetic Yucatan miniature swine (4 animals/group) were fed and administered NPH insulin at 8:00 AM and at 12 h prior to the initiation of the study, then fasted until the completion of the final blood glucose measurements. Insulin NPH doses were adjusted based on glucose levels and the animals were randomized to achieve balanced glucose levels across groups. […] Blood glucose was measured at −5, 0 (Pre-Dose), 30, 60, 120, 240, 245, 250, 260, 280, 300, 330, 360 and 480 minutes using a handheld glucometer. The same instrument was used for all animals and two readings were taken per time point to insure consistency. The statistical analysis of the results obtained in the in vivo experiments was performed using Prism 6.0h (GraphPad Software, Calif.) applying regular two-way ANOVA followed by Sidak multiple comparison test between the two treatments. […] The results are presented as means±SEM of four replicates per group.

The next data set addresses glucagon receptor (Homo sapiens, UniProt P47871). As to the kind of experiment: Luciferase-based glucagon assay (cAMP reporter, HEK293 cells).

A value given as a limit tells only on which side of the number the result lay.

Broadly, the solubility is how much of the substance goes into solution per volume. For orientation: EC50 means the midpoint of the concentration-response curve.

Sequence of glucagon receptor (P47871 26-477): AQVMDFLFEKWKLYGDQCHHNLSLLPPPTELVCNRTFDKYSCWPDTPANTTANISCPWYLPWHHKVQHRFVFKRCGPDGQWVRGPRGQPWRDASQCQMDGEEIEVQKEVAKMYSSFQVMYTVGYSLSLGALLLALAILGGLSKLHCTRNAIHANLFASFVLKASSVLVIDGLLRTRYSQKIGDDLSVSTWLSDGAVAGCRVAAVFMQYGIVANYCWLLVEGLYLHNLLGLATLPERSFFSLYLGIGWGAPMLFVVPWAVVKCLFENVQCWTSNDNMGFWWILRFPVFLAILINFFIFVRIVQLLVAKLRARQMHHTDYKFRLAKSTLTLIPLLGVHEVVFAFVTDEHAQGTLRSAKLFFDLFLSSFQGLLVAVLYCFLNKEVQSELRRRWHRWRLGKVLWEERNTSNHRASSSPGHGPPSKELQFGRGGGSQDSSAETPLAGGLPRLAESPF
Procedure for glucagon receptor: At the end of the incubation 100 microliters of LucLite luminescence substrate reagent (Perkin-Elmer, Wellesley, Mass.) were added to each well. […] The luminescent light output indicates activation of the luciferase reporter gene, which in turn is a measure of the activation of the receptor.

The compound `CSCC[C@H](NC(=O)[C@H](CC(C)C)NC(=O)[C@H](Cc1c[nH]c2ccccc12)NC(=O)[C@H](CCC(N)=O)NC(=O)[C@@H](NC(=O)[C@H](Cc1ccccc1)NC(=O)[C@H](CC(=O)O)NC(=O)[C@H](CCC(N)=O)NC(=O)[C@H](C)NC(=O)[C@H](CCCNC(=N)N)NC(=O)[C@H](CCCNC(=N)N)NC(=O)C(C)(C)NC(=O)[C@H](CC(=O)O)NC(=O)[C@H](CC(C)C)NC(=O)[C@H](Cc1cccnc1)NC(=O)[C@H](CCCCN)NC(=O)[C@H](CO)NC(=O)[C@H](Cc1cccnc1)NC(=O)[C@H](CC(=O)O)NC(=O)[C@H](CO)NC(=O)[C@@H](NC(=O)[C@H](Cc1cccnc1)NC(=O)[C@@H](NC(=O)CNC(=O)[C@H](CCC(N)=O)NC(=O)[C@H](CO)NC(=O)[C@@H](N)Cc1cnc[nH]1)[C@@H](C)O)[C@@H](C)O)C(C)C)C(=O)N[C@@H](CC(N)=O)C(=O)N[C@H](C(=O)O)[C@@H](C)O` [Compound 9, HSQGTXTSDXSKXLDZRRAQDFVQWLMNT] registered a solubility in “physchem” (pH 7) of over 10000 µg/mL. The compound further had a solubility at 1 h in “physchem” (pH 7.4) of over 10000 µg/mL. In addition, the “resistance to fibrillation (thioflavin-T fluorescence, FIG. 2)” value in data set [1] (5 mg/mL, 37° C. 48H without agitation, then 40° C. 48H with agitation) was “resistant to fibrillation”. Moreover, in data set [1] (45 hours at 37° C., pH 7.0 in phosphate buffer), the “stability / resistance to fibrillation (ThT assay, FIG. 8)” value was “showed stability”. In data set [2], the “reversal of insulin induced hypoglycemia (blood glucose)” value is “reverse insulin induced hypoglycemia”. Moreover, the “in vitro efficacy / potency (in words)” value on glucagon receptor (luciferase-based glucagon assay) is “fully potent”. The half-maximal effective concentration (EC50) on glucagon receptor (read-out: EC50 [nM] (SDV), luciferase-based glucagon assay, SDV in brackets) worked out at 0.0714 nM. Moreover, on glucagon receptor (relative to native glucagon), the “% bioactivity of GCG” value amounted to 28%.
